Test results from patent publication US20240279207A1, “SUBSTITUTED ACYL SULFONAMIDES FOR TREATING CANCER” (The Broad Institute, Inc., priority 2020, published 2024).

Assays:
[1] = molecular target: T1, Recombinant human His-tagged Kat6a protein (amino acids 194-810) (Homo sapiens, UniProt Q92794); test: Kat6a activity assay (TR-FRET, acetylation of Histone-H4-derived peptide); assay type: biochemical; settings: 60 mins at 22° C., 220 nM H4 peptide, 600 nM Acetyl Coenzyme A, read-out: KAT6A - DPF/HAT domain IC50 [mol/l] (arithmetic mean)
T1 construct: Kat6a protein (amino acids 194-810); His
T1 sequence (Q92794 194-810): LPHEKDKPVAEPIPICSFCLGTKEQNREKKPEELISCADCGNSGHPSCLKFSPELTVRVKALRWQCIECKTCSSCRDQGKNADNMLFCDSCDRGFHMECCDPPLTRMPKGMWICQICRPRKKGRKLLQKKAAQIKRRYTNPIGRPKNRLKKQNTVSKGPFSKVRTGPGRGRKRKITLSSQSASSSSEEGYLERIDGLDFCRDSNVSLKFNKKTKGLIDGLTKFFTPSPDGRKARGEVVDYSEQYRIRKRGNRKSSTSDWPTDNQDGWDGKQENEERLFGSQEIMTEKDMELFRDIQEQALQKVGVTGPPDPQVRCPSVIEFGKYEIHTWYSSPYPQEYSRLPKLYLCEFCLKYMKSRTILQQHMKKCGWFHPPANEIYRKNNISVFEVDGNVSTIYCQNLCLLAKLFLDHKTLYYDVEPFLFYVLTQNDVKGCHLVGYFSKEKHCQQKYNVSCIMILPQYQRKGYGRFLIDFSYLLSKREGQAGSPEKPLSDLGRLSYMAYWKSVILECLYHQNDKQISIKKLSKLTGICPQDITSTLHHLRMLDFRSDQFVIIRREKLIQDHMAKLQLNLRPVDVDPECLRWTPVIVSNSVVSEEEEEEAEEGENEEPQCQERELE

[2] = molecular target: T2, Recombinant human GST-tagged Kat6b protein (431-end) (Homo sapiens, UniProt Q8WYB5); test: Kat6b activity assay (TR-FRET, acetylation of Histone-H4-derived peptide); assay type: biochemical; settings: 30 mins at 22° C., 500 nM H4 peptide, 600 nM Acetyl Coenzyme A, read-out: KAT6B activity assay IC50 [mol/l] (arithmetic mean)
T2 construct: Kat6b protein (431-end, N-terminal GST-tag); GST (N)
T2 sequence (Q8WYB5 431-2073): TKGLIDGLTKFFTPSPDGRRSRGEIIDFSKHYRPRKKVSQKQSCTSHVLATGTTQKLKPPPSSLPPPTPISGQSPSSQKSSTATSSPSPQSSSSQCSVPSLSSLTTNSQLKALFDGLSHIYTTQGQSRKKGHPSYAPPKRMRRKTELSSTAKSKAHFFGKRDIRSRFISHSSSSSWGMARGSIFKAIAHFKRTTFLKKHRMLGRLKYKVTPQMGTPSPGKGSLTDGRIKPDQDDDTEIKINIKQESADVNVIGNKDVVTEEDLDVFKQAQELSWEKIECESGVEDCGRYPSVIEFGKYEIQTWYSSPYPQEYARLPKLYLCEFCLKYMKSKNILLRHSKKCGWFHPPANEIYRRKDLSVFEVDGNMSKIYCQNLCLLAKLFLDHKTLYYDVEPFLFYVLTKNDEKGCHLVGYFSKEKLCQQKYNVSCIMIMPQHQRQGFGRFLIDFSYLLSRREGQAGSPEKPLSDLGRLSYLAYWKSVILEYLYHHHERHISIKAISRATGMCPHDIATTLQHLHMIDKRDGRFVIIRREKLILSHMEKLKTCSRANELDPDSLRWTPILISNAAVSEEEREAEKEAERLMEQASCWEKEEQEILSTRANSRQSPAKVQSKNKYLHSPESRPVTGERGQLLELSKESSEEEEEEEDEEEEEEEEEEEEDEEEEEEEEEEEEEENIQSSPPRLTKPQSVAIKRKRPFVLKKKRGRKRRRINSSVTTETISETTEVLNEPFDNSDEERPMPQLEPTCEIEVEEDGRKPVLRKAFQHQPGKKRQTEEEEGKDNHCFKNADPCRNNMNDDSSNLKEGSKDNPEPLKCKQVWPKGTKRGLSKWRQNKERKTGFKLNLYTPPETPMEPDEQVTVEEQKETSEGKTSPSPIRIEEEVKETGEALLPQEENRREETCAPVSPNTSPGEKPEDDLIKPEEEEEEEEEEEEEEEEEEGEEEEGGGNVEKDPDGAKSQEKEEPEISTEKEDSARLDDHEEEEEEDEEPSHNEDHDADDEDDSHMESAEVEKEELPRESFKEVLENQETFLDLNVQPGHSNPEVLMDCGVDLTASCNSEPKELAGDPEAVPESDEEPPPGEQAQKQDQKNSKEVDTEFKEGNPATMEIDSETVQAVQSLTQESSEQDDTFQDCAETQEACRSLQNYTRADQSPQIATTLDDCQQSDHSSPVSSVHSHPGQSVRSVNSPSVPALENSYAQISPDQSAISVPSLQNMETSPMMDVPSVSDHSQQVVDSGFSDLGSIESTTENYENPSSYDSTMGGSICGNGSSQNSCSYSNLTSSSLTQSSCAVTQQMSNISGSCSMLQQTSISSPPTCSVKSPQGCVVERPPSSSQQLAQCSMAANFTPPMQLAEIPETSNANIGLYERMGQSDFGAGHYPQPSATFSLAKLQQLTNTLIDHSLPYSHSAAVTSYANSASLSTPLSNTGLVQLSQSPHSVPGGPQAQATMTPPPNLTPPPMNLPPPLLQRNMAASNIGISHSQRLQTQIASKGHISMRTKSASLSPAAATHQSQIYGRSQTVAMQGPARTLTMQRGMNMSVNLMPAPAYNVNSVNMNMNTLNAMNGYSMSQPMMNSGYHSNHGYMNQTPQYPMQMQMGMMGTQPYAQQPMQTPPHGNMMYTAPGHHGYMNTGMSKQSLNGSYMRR
Description: Kat6b inhibitory activities of the compounds described in the present invention were quantified using a Fluorescence Resonance Energy Transfer (TR-FRET) assay which measures acetylation of a synthetic, biotinylated Histone-H4-derived peptide by the enzyme.
In this case 50 nl DMSO were used instead of compounds. […] IC50 values were determined by regression analysis based on a 4 parameter equation (minimum, maximum, ICM, Hill; Y=Max+(Min−Max)/(1+(X/ICso) Hill) using the Screener Software (Genedata).

[3] = tested on: ESR1 transcription in MVLN cells; test: MVLN reporter assay: repression of ESR1 transcription (luciferase signal); assay type: cell-based; settings: Homo sapiens, MVLN, 24 h, luciferase signal after 24 h, read-out: MVLN reporter assay, IC50 [M] (arithmetic mean)
Outline: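 To control for cell loss, Alamar Blue (2 h, 530/590 nm) precedes the 24 h luciferase measurement. The reporter is an ERE from the Xenopus vitellogenin A2 gene driving luciferase, stably transfected into ER-expressing MVLN cells; duplicate samples.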

MDA-MB-436 cells = test: MDA-MB-436 proliferation assay (negative control cell line); assay type: cell-based; settings: Homo sapiens, 144 h, Alamar Blue, read-out: MDA-MB-436 proliferation assay, EC50 [M] (arithmetic mean)
Outline: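 MDA-MB-436 cells (KAT6A deletion, low KAT6A protein) seeded at 3000 cells/well in DMEM/Ham's F12 with 2.5% FBS, treated in triplicate for 144 h at 37° C, 5% CO2. Viability read by Alamar Blue fluorescence at 590 nm after 2 h.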

LCLC97TM1 = LCLC97TM1 proliferation assay; assay type: cell-based; settings: Homo sapiens, LCLC-97TM1, LCLC97TM1; read-out: LCLC97TM1 proliferation assay; EC50 [M] (arithmetic mean)
ZR-75-1 cells = test: ZR-75-1 proliferation assay; assay type: cell-based; settings: Homo sapiens, ZR-75-1, 144 h, Alamar Blue, read-out: ZR75-1 proliferation assay, EC50 [M] (arithmetic mean)
Outline: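 ZR-75-1 cells (focal KAT6A amplification), 3000 per well in RPMI 1640 with 2.5% FBS, were exposed to compound in triplicate for 144 h at 37 °C, 5% CO2. Viability read by Alamar Blue fluorescence at 590 nm after 2 h.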

CCOc1ccc(C(C)(C)C)cc1S(=O)(=O)NC(=O)c1cc2c(F)cc(N3CC(F)C3)cc2o1 [Example 113, N-(5-tert-butyl-2-ethoxybenzene-1-sulfonyl)-4-fluoro-6-(3-fluoroazetidin-1-yl)-1-benzofuran-2-carboxamide]
IC50 [1]: 4.48 nM
IC50 [2]: 11.6 nM
IC50 [3]: 1.08e-08 M
EC50 (MDA-MB-436 cells): > 2e-05 M
EC50 (LCLC97TM1): 3.7e-08 M
EC50 (ZR-75-1 cells): 2.94e-08 M

O=C(NS(=O)(=O)c1ccccc1OC1CC1)c1cc2c(F)cc(N3CCC3)cc2o1 [Example 131, 6-(Azetidin-1-yl)-N-[2-(cyclopropyloxy)benzene-1-sulfonyl]-4-fluoro-1-benzofuran-2-carboxamide]
IC50 [1]: 23.4 nM
IC50 [2]: 23.2 nM
IC50 [3]: 3.83e-08 M
EC50 (MDA-MB-436 cells): > 2e-05 M
EC50 (LCLC97TM1): 7.53e-08 M
EC50 (ZR-75-1 cells): 2.09e-07 M

CCOc1ccc(C(C)CC)cc1S(=O)(=O)NC(=O)c1cc2c(F)cc(N3CCC3)cc2o1 (racemic) [Example 207, 6-(Azetidin-1-yl)-N-[(5-sec-butyl-2-ethoxyphenyl)sulfonyl]-4-fluoro-1-benzofuran-2-carboxamide (rac)]
IC50 [1]: 1.86 nM
IC50 [2]: 5.65 nM
IC50 [3]: 9.04e-09 M
EC50 (MDA-MB-436 cells): > 2e-05 M
EC50 (LCLC97TM1): 4.29e-08 M
EC50 (ZR-75-1 cells): 1.03e-07 M

CC(C)c1cccnc1S(=O)(=O)NC(=O)c1cc2c(F)cc(N3CCC3)cc2o1 [Example 79, 6-(Azetidin-1-yl)-4-fluoro-N-[3-(propan-2-yl)pyridine-2-sulfonyl]-1-benzofuran-2-carboxamide]
IC50 [1]: 9.58 nM
IC50 [2]: 13.6 nM
IC50 [3]: 2.1e-08 M
EC50 (MDA-MB-436 cells): > 2e-05 M
EC50 (LCLC97TM1): 3.9e-08 M
EC50 (ZR-75-1 cells): 3.61e-08 M

COc1ccc(C(C)(C)C)cc1S(=O)(=O)NC(=O)c1cc2c(F)cc(N3CC(F)C3)cc2o1 [Example 150, N-(5-tert-butyl-2-methoxybenzene-1-sulfonyl)-4-fluoro-6-(3-fluoroazetidin-1-yl)-1-benzofuran-2-carboxamide]
IC50 [1]: 4.25 nM
IC50 [2]: 9.78 nM
IC50 [3]: 5.97e-09 M
EC50 (MDA-MB-436 cells): > 2e-05 M
EC50 (LCLC97TM1): 4.58e-08 M
EC50 (ZR-75-1 cells): 5.78e-08 M

CCOc1cccc(OC)c1S(=O)(=O)NC(=O)c1cc2c(F)cc(N3CCC3)cc2o1 [Example 1, 6-(Azetidin-1-yl)-N-(2-ethoxy-6-methoxybenzene-1-sulfonyl)-4-fluoro-1-benzofuran-2-carboxamide]
IC50 [1]: 8.61 nM
IC50 [2]: 20.9 nM
IC50 [3]: 3.89e-08 M
EC50 (MDA-MB-436 cells): > 2e-05 M
EC50 (LCLC97TM1): 2.13e-07 M
EC50 (ZR-75-1 cells): 7.18e-08 M

CC(C)c1ccc(OCC2CC2(F)F)c(S(=O)(=O)NC(=O)c2cc3c(F)cc(N4CCC4)cc3o2)c1 (racemic) [Example 231, 6-(Azetidin-1-yl)-N-((2-((2,2-difluorocyclopropyl)methoxy)-5-isopropylphenyl)sulfonyl)-4-fluorobenzofuran-2-carboxamide (rac)]
IC50 [1]: 4.22 nM
IC50 [2]: 28.8 nM
IC50 [3]: 1.83e-08 M
EC50 (MDA-MB-436 cells): > 2e-05 M
EC50 (LCLC97TM1): 1.99e-07 M
EC50 (ZR-75-1 cells): 1.58e-07 M

CC(C)c1ccc(OCc2ccccc2)c(S(=O)(=O)NC(=O)c2cc3c(F)cc(N4CCC4)cc3o2)c1 [Example 213, 6-(azetidin-1-yl)-N-(2-benzyloxy-5-isopropyl-phenyl)sulfonyl-4-fluoro-benzofuran-2-carboxamide]
IC50 [1]: 6.18 nM
IC50 [2]: 14.7 nM
IC50 [3]: 3.31e-08 M
EC50 (MDA-MB-436 cells): 1.41e-05 M
EC50 (LCLC97TM1): 1.52e-07 M
EC50 (ZR-75-1 cells): 1.17e-07 M

CC(C)Oc1ccc(C(C)(C)C)cc1S(=O)(=O)NC(=O)c1cc2c(F)cc(N3CCC3)cc2o1 [Example 229, 6-(Azetidin-1-yl)-N-[(5-(tert-butyl)-2-isopropoxyphenyl)sulfonyl]-4-fluorobenzofuran-2-carboxamide]
IC50 [1]: 4.79 nM
IC50 [2]: 27.6 nM
IC50 [3]: 3.83e-08 M
EC50 (MDA-MB-436 cells): > 2e-05 M
EC50 (LCLC97TM1): 1.8e-07 M
EC50 (ZR-75-1 cells): 2.18e-07 M
